Experimental data: ChEMBL document CHEMBL3351947, “Isolation of pyrrolocins A-C: cis- and trans-decalin tetramic acid antibiotics from an endophytic fungal-derived pathway” (J Nat Prod, 2014)

Tests used:
[1] = Cytotoxicity against human CEM-TART cells after 4 days by MTT assay; assay type: cell-based; details: 96 h
[2] = system: Mycobacterium tuberculosis; assay: Antimicrobial activity against Mycobacterium tuberculosis H37Ra after 4 days by MTT assay; assay type: functional, organism-based; details: 96 h

CC1=C[C@@H]2C[C@@H](C)CC[C@@H]2[C@@](C)(C(=O)C2=C(O)[C@@H](CO)NC2=O)[C@@H]1/C=C/C=C/C[C@@H](C)O
IC50 [1]: 167 µM | IC50 [2]: 113 µM

CO[C@H]1/C=C/O[C@@]2(C)Oc3c(C)c(O)c4c(O)c(c(/C=N/N5CCN(C)CC5)c(O)c4c3C2=O)NC(=O)/C(C)=C\C=C\[C@H](C)[C@H](O)[C@@H](C)[C@@H](O)[C@@H](C)[C@H](OC(C)=O)[C@@H]1C [RIFAMPIN]
IC50 [2]: 0.152 µM

CC1=C[C@H]2C[C@@H](C)CC[C@@H]2[C@@](C)(C(=O)C2=C(O)[C@@H](CO)NC2=O)[C@H]1/C=C/C=C/C[C@@H](C)O
IC50 [1]: 113 µM | IC50 [2]: 56.4 µM

CC1=C[C@H]2C[C@@H](C)CC[C@@H]2[C@@](C)(C(=O)C2=C(O)[C@@H](CO)N(C)C2=O)[C@H]1/C=C/C=C/C[C@@H](C)O
IC50 [1]: 76.6 µM | IC50 [2]: 26.3 µM
